In the CheMixHub viscosity set:

Assay: xn = mol fraction of the nth substance listed

CC(C)[C@H](N)C(=O)[O-].[Na+] + O
viscosity [mPa·s], 101 kPa
Conditions	x1 = 0.004484	x1 = 0.008927	x1 = 0.01333	x1 = 0.0177	x1 = 0.02202	x1 = 0.02631
293.15 K	1.165	1.356	1.571	1.816	2.087	2.385
303.15 K	0.919	1.057	1.214	1.382	1.573	1.786
313.15 K	0.747	0.85	0.969	1.094	1.233	1.387
323.15 K	0.621	0.702	0.793	0.889	0.994	1.11

CCCCCCCCn1cc[n+](C)c1.[Cl-] + CO
298.15 K, 101 kPa
Conditions	viscosity [mPa·s]
x2 = 0.0565	10350
x2 = 0.1686	3456
x2 = 0.3525	534

CCOC(C)=O + CC#N
303.15 K, 101.33 kPa
Conditions	viscosity [mPa·s]
x2 = 0.0931	0.3988
x2 = 0.1928	0.3934
x2 = 0.298	0.3881
x2 = 0.3925	0.3819
x2 = 0.4985	0.3753
x2 = 0.5974	0.3676
x2 = 0.6982	0.3591
x2 = 0.8001	0.3486
x2 = 0.8988	0.3402

CCOC(C)=O + CCCCO
298.15 K
Conditions	viscosity [mPa·s]
101 kPa, x2 = 0.12	0.48
101 kPa, x2 = 0.23	0.51
101 kPa, x2 = 0.34	0.578
101 kPa, x2 = 0.44	0.648
101 kPa, x2 = 0.54	0.79
101 kPa, x2 = 0.64	0.987
101 kPa, x2 = 0.73	1.165
101 kPa, x2 = 0.83	1.425
101 kPa, x2 = 0.91	1.815
101.33 kPa, x2 = 0.1338	0.468
101.33 kPa, x2 = 0.2522	0.517
101.33 kPa, x2 = 0.3724	0.599
101.33 kPa, x2 = 0.4809	0.691
101.33 kPa, x2 = 0.5952	0.838
101.33 kPa, x2 = 0.7033	1.041
101.33 kPa, x2 = 0.801	1.331
101.33 kPa, x2 = 0.8918	1.741

CS(=O)(=O)[O-].C[N+](C)(CCO)CCO + CCCO
Conditions	viscosity [mPa·s]
298.15 K, 101.33 kPa, x1 = 0.8978	965

COc1ccc(C=O)cc1 + COCCO
viscosity [mPa·s], 101 kPa
Conditions	x1 = 0.0753	x1 = 0.1549	x1 = 0.2391	x1 = 0.3283	x1 = 0.4231	x1 = 0.5238	x1 = 0.6311	x1 = 0.7457	x1 = 0.8684
303.15 K	1.502	1.518	1.567	1.656	1.793	1.984	2.242	2.577	3.006
308.15 K	1.463	1.488	1.537	1.614	1.723	1.87	2.062	2.308	2.617
313.15 K	1.214	1.258	1.32	1.404	1.513	1.651	1.824	2.037	2.298
318.15 K	1.129	1.175	1.236	1.312	1.408	1.525	1.669	1.843	2.054

CCOC(C)=O + C1CCCCC1
viscosity [mPa·s], 101 kPa
Conditions	298.15 K	308.15 K
x1 = 0.0548	0.841	0.706
x1 = 0.1549	0.765	0.63
x1 = 0.2552	0.7	0.569
x1 = 0.3558	0.643	0.52
x1 = 0.4539	0.595	0.481
x1 = 0.4998	0.575	0.466
x1 = 0.5513	0.554	0.451
x1 = 0.6549	0.516	0.426
x1 = 0.7515	0.486	0.408
x1 = 0.8531	0.458	0.395
x1 = 0.9536	0.435	0.387

CCOC(C)=O + O
298.15 K, 101 kPa
Conditions	viscosity [mPa·s]
x1 = 0.00139	0.9095
x1 = 0.001837	0.9129
x1 = 0.003766	0.9354
x1 = 0.006372	0.9652
x1 = 0.006895	0.9678
x1 = 0.01022	1.004
x1 = 0.01327	1.036
x1 = 0.8902	0.4495
x1 = 0.9238	0.4395
x1 = 0.9579	0.4312

COC(=O)CC(C)=O + CCCCCCC(C)O
viscosity [mPa·s], 101.3 kPa
Conditions	x1 = 0.1041	x1 = 0.2072	x1 = 0.3091	x1 = 0.4101	x1 = 0.5107	x1 = 0.6079	x1 = 0.7081	x1 = 0.807	x1 = 0.9036
298.15 K	4.231	3.315	2.753	2.358	2.075	1.9	1.699	1.574	1.52
303.15 K	3.511	2.796	2.344	2.026	1.796	1.661	1.506	1.413	1.374
308.15 K	2.939	2.377	2.015	1.756	1.567	1.476	1.352	1.279	1.251

CCOC(C)=O + CC(C)O
viscosity [mPa·s], 101.3 kPa
Conditions	x1 = 0.1003	x1 = 0.2045	x1 = 0.3082	x1 = 0.4005	x1 = 0.4994	x1 = 0.5952	x1 = 0.7049	x1 = 0.7916	x1 = 0.9011
298.15 K	1.326	0.9655	0.767	0.6606	0.5797	0.5283	0.4812	0.466	0.4473
303.15 K	1.177	0.8717	0.701	0.6122	0.5391	0.4939	0.4525	0.4389	0.4233
308.15 K	1.044	0.7861	0.6407	0.5644	0.5011	0.4617	0.4257	0.4153	0.4006
313.15 K	0.9286	0.7126	0.5876	0.5224	0.4673	0.4332	0.4012	0.3911	0.3793
318.15 K	0.8325	0.6477	0.5427	0.4856	0.4365	0.4066	0.3798	0.3711	0.3605
323.15 K	0.7498	0.5901	0.501	0.4503	0.4088	0.3831	0.3586	0.3513	0.343

CCOc1ccccc1 + CCCCCCCO
viscosity [mPa·s], 101.3 kPa
Conditions	x1 = 0.0989	x1 = 0.1998	x1 = 0.2988	x1 = 0.4017	x1 = 0.5011	x1 = 0.6101	x1 = 0.7004	x1 = 0.8009	x1 = 0.9031
293.15 K	5.488	4.237	3.317	2.62	2.147	1.814	1.606	1.47	1.388
298.15 K	4.761	3.758	2.978	2.379	1.916	1.583	1.412	1.295	1.252
308.15 K	3.737	2.957	2.382	1.91	1.58	1.318	1.171	1.066	1.001
318.15 K	2.785	2.261	1.846	1.517	1.28	1.083	0.9726	0.8947	0.8422

OCC(O)CO + CCCCO
viscosity [mPa·s], 101.33 kPa
Conditions	x1 = 0.1003	x1 = 0.1997	x1 = 0.3003	x1 = 0.4007	x1 = 0.4996	x1 = 0.5995	x1 = 0.6994	x1 = 0.8004	x1 = 0.8999
298.15 K	4.05	6.403	10.09	18.38	37.92	83.21	180.7	338.3	541.7
308.15 K	3.014	4.518	6.896	11.9	21.63	44.15	82.38	144.5	231.5
318.15 K	2.324	3.356	4.9	8.136	13.77	24.56	41.13	68.13	105.3

COC(=O)CC(C)=O + COC(C)=O
viscosity [mPa·s], 101.33 kPa
Conditions	x1 = 0.0996	x1 = 0.1998	x1 = 0.3009	x1 = 0.397	x1 = 0.4973	x1 = 0.5975	x1 = 0.6969	x1 = 0.7993	x1 = 0.9006
298.15 K	0.448	0.52	0.596	0.688	0.798	0.915	1.044	1.202	1.373
303.15 K	0.424	0.489	0.564	0.643	0.744	0.843	0.963	1.104	1.257
308.15 K	0.403	0.463	0.533	0.603	0.696	0.786	0.913	1.024	1.155

CCOc1ccccc1 + CN1CCCC1=O
viscosity [mPa·s], 101.33 kPa
Conditions	x1 = 0.041	x1 = 0.122	x1 = 0.201	x1 = 0.273	x1 = 0.37	x1 = 0.504	x1 = 0.628	x1 = 0.709	x1 = 0.822
298 K	1.667	1.648	1.622	1.594	1.551	1.481	1.408	1.36	1.285
303 K	1.541	1.518	1.49	1.461	1.418	1.353	1.286	1.242	1.175
308 K	1.432	1.406	1.377	1.348	1.307	1.244	1.183	1.141	1.08

CCOC(C)=O + CCCCCCC
296 K, 101.3 kPa
Conditions	viscosity [mPa·s]
x1 = 0.0713	0.391
x1 = 0.1748	0.385
x1 = 0.2448	0.382
x1 = 0.3468	0.382
x1 = 0.4832	0.383
x1 = 0.4946	0.381
x1 = 0.5009	0.382
x1 = 0.5867	0.387
x1 = 0.6508	0.392
x1 = 0.7653	0.403
x1 = 0.8485	0.413
x1 = 0.8885	0.42

COc1ccc(C=O)cc1 + CCCCOCCO
viscosity [mPa·s], 101 kPa
Conditions	x1 = 0.1088	x1 = 0.2154	x1 = 0.3201	x1 = 0.4227	x1 = 0.5234	x1 = 0.6223	x1 = 0.7193	x1 = 0.8146	x1 = 0.9081
303.15 K	2.197	2.089	2.055	2.09	2.191	2.354	2.575	2.852	3.18
308.15 K	2.107	2.006	1.963	1.973	2.035	2.145	2.3	2.499	2.738
313.15 K	1.984	1.912	1.881	1.888	1.932	2.01	2.121	2.262	2.432
318.15 K	1.836	1.786	1.766	1.773	1.806	1.865	1.947	2.051	2.175

CCOC(C)=O + Cc1ccccc1
viscosity [mPa·s], 101 kPa
Conditions	298.15 K	308.15 K
x1 = 0.045	0.538	0.49
x1 = 0.1	0.534	–
x1 = 0.1501	0.514	0.472
x1 = 0.21	0.512	–
x1 = 0.2483	0.495	0.457
x1 = 0.31	0.506	–
x1 = 0.3517	0.478	0.443
x1 = 0.41	0.484	–
x1 = 0.4469	0.464	0.431
x1 = 0.4912	0.459	0.426
x1 = 0.51	0.482	–
x1 = 0.5503	0.452	0.42
x1 = 0.61	0.478	–
x1 = 0.6489	0.443	0.411
x1 = 0.71	0.455	–
x1 = 0.749	0.436	0.403
x1 = 0.81	0.445	–
x1 = 0.8507	0.431	0.395
x1 = 0.9	0.428	–
x1 = 0.9432	0.429	0.39
x2 = 0.1513	0.466	–
x2 = 0.442	0.481	–
x2 = 0.7034	0.509	–

COC(=O)CC(C)=O + CCCCCCO
viscosity [mPa·s], 101.33 kPa
Conditions	x1 = 0.1036	x1 = 0.204	x1 = 0.3064	x1 = 0.4075	x1 = 0.5096	x1 = 0.6081	x1 = 0.7063	x1 = 0.806	x1 = 0.9023
298.15 K	3.185	2.588	2.204	1.947	1.749	1.609	1.521	1.473	1.478
303.15 K	2.76	2.257	1.932	1.72	1.547	1.442	1.364	1.33	1.34
308.15 K	2.409	1.989	1.711	1.527	1.387	1.302	1.238	1.211	1.222

COC(=O)CC(C)=O + CCCCO
viscosity [mPa·s], 101.33 kPa
Conditions	x1 = 0.1022	x1 = 0.2039	x1 = 0.306	x1 = 0.4081	x1 = 0.511	x1 = 0.6074	x1 = 0.7044	x1 = 0.8051	x1 = 0.9038
298.15 K	1.886	1.628	1.465	1.378	1.328	1.311	1.321	1.368	1.436
303.15 K	1.669	1.447	1.308	1.235	1.197	1.183	1.197	1.211	1.302
308.15 K	1.487	1.301	1.195	1.118	1.09	1.08	1.093	1.131	1.19
